In article PMC4678576, “Optimisation of a triazolopyridine based histone demethylase inhibitor yields a potent and selective KDM2A (FBXL11) inhibitor” (MedChemComm, 2014):

Assay: Parallel artificial membrane permeation assay (PAMPA)
Type: in vitro ADME
Details: for Papp: PAMPA, range over pH 7.4, 6.2, 5.0, read-out: membrane permeability (PAMPA), range over the pH values tested

Papp [×10⁻⁶ cm/s]	PAMPA Pe pH 5.0	PAMPA Pe pH 6.2	PAMPA Pe pH 7.4	Structure (SMILES)
0.41 to 1.9	1.9 10^−6 cm s^−1	0.41 10^−6 cm s^−1	0.69 10^−6 cm s^−1	O=C(O)c1ccnc(-c2cn([C@@H]3CCCN(C(=O)c4ccccc4)C3)nn2)c1 [Compound 35]
45 to 56	56 10^−6 cm s^−1	45 10^−6 cm s^−1	52 10^−6 cm s^−1	COC(=O)c1ccnc(-c2cn([C@@H]3CCCN(C(=O)c4ccccc4)C3)nn2)c1 [Compound 37]
